In patent US9187455B2, “Substituted pyridazines as PDE10A inhibitors” (Hoffmann-La Roche Inc., priority 2009, dated 2015):

Target: T1, PDE10A2 (Homo sapiens, UniProt Q9Y233)
T1 construct: residues serine 449 to aspartate 789; His6 (H6) with Gateway linker and thrombin cleavage site (N, cleaved yes); made in house; host or cells: E. coli BL21(DE3) pLysS
Experiment: PDE10A2 Scintillation Proximity Assay (SPA), [3H]-cGMP hydrolysis
Type: biochemical
Settings: catalytic domain of human PDE10A2 (S449-D789), 0.25 nM enzyme, 50 nM cGMP + 50 nM [3H]-cGMP, 30 minutes at room temperature; read-out: PDE10A2 inhibition IC50
Summary of the method: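 Recombinant human PDE10A2 catalytic domain (S449–D789, E. coli-expressed), 0.25 nM, with 50 nM cGMP plus 50 nM [3H]-cGMP in 20 mM HEPES/10 mM MgCl2, pH 7.5, 30 min at room temperature. Stopped with YSi-SPA beads in zinc sulphate; counts over a compound concentration range gave IC50.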

T1 sequence (Q9Y233 715-1055): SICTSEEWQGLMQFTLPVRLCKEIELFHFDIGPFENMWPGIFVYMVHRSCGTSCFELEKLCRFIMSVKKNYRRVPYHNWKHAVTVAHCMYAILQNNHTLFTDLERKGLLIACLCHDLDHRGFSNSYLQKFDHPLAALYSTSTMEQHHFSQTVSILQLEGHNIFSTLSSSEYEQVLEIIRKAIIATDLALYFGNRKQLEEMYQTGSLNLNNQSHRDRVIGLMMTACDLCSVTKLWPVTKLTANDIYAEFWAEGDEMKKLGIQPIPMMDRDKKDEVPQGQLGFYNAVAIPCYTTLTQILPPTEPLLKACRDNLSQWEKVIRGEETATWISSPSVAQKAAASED

Cc1cncc(-n2ccc(=O)c(-c3ccnn3-c3ccc4c(c3)OCCO4)n2)c1 [Example 36, 3-[2-(2,3-Dihydro-benzo[1,4]dioxin-6-yl)-2H-pyrazol-3-yl]-1-(5-methyl-pyridin-3-yl)-1H-pyridazin-4-one]
IC50: 71 nM

O=c1ccn(-c2ccc(C(F)(F)F)nc2)nc1-c1ccnn1-c1cccc2ncccc12 [Example 80, 3-(2-Quinolin-5-yl-2H-pyrazol-3-yl)-1-(6-trifluoromethyl-pyridin-3-yl)-1H-pyridazin-4-one]
IC50: 72 nM

O=c1ccn(-c2ccncc2)nc1-c1ccnn1-c1cccc(Br)c1 [Example 97, 3-[2-(3-Bromo-phenyl)-2H-pyrazol-3-yl]-1-pyridin-4-yl-1H-pyridazin-4-one]
IC50: 17 nM

O=c1ccn(-c2ccnc(Cl)c2)nc1-c1ccnn1-c1cccc2cnccc12 [Example 59, 1-(2-Chloro-pyridin-4-yl)-3-(2-isoquinolin-5-yl-2H-pyrazol-3-yl)-1H-pyridazin-4-one]
IC50: 220 nM

O=c1ccn(-c2ccnc(Cl)c2)nc1-c1ccnn1-c1cccc(Cl)c1 [Example 56, 3-[2-(3-Chloro-phenyl)-2H-pyrazol-3-yl]-1-(2-chloro-pyridin-4-yl)-1H-pyridazin-4-one]
IC50: 50 nM

C#Cc1cccc(-n2nccc2-c2nn(-c3ccncc3)ccc2=O)c1 [Example 99, 3-[2-(3-Ethynyl-phenyl)-2H-pyrazol-3-yl]-1-pyridin-4-yl-1H-pyridazin-4-one]
IC50: 18 nM

N#Cc1cc(-n2ccc(=O)c(-c3ccnn3-c3ccc4c(c3)OCCO4)n2)ccn1 [Example 43, 4-{3-[2-(2,3-Dihydro-benzo[1,4]dioxin-6-yl)-2H-pyrazol-3-yl]-4-oxo-4H-pyridazin-1-yl}-pyridine-2-carbonitrile]
IC50: 663 nM

O=c1ccn(-c2cncc(Cl)c2)nc1-c1ccnn1-c1ccnc2ccc(Cl)cc12 [Example 61, 1-(5-Chloro-pyridin-3-yl)-3-[2-(6-chloro-quinolin-4-yl)-2H-pyrazol-3-yl]-1H-pyridazin-4-one]
IC50: 220 nM

O=c1ccn(-c2ccc3cnccc3c2)nc1-c1ccnn1-c1cccc(F)c1 [Example 101, 3-[2-(3-Fluoro-phenyl)-2H-pyrazol-3-yl]-1-isoquinolin-6-yl-1H-pyridazin-4-one]
IC50: 41 nM

Cc1cc(-n2nccc2-c2nn(-c3ccncc3)ccc2=O)ccn1 [Example 19, 3-[2-(2-Methyl-pyridin-4-yl)-2H-pyrazol-3-yl]-1-pyridin-4-yl-1H-pyridazin-4-one]
IC50: 417 nM

N#Cc1cncc(-n2ccc(=O)c(-c3ccnn3-c3ccccc3F)n2)c1 [Example 87, 5-{3-[2-(2-Fluoro-phenyl)-2H-pyrazol-3-yl]-4-oxo-4H-pyridazin-1-yl}-nicotinonitrile]
IC50: 477 nM

O=c1ccn(-c2ccncc2)nc1-c1ccnn1-c1cccc(Cl)c1 [Example 18, 3-[2-(3-Chloro-phenyl)-2H-pyrazol-3-yl]-1-pyridin-4-yl-1H-pyridazin-4-one]
IC50: 140 nM

O=c1ccn(-c2ccncc2)nc1-c1ccnn1-c1ccccc1 [Example 30, 3-(2-Phenyl-2H-pyrazol-3-yl)-1-pyridin-4-yl-1H-pyridazin-4-one]
IC50: 69 nM

O=c1ccn(-c2cncc(OC(F)F)c2)nc1-c1ccnn1-c1ccccc1F [Example 74, 1-(5-Difluoromethoxy-pyridin-3-yl)-3-[2-(2-fluoro-phenyl)-2H-pyrazol-3-yl]-1H-pyridazin-4-one]
IC50: 27 nM

O=c1ccn(-c2cccnc2)nc1-c1ccnn1-c1cccc(F)c1 [Example 35, 3-[2-(3-Fluoro-phenyl)-2H-pyrazol-3-yl]-1-pyridin-3-yl-1H-pyridazin-4-one]
IC50: 285 nM

Cc1cc(-n2ccc(=O)c(-c3ccnn3-c3cccc4cnccc34)n2)ccn1 [Example 85, 3-(2-Isoquinolin-5-yl-2H-pyrazol-3-yl)-1-(2-methyl-pyridin-4-yl)-1H-pyridazin-4-one]
IC50: 46 nM

Cc1cc(-n2ccc(=O)c(-c3ccnn3-c3cccc4ncccc34)n2)ccn1 [Example 83, 1-(2-Methyl-pyridin-4-yl)-3-(2-quinolin-5-yl-2H-pyrazol-3-yl)-1H-pyridazin-4-one]
IC50: 134 nM

O=c1ccn(-c2ccc3ncccc3c2)nc1-c1ccnn1-c1ccccc1F [Example 102, 3-[2-(2-Fluoro-phenyl)-2H-pyrazol-3-yl]-1-quinolin-6-yl-1H-pyridazin-4-one]
IC50: 20 nM

COc1cc(-n2ccc(=O)c(-c3ccnn3-c3cccc(F)c3)n2)ccn1 [Example 40, 3-[2-(3-Fluoro-phenyl)-2H-pyrazol-3-yl]-1-(2-methoxy-pyridin-4-yl)-1H-pyridazin-4-one]
IC50: 414 nM

O=c1ccn(-c2ccnc(O)c2)nc1-c1ccnn1-c1ccc2c(c1)OCCO2 [Example 46, 3-[2-(2,3-Dihydro-benzo[1,4]dioxin-6-yl)-2H-pyrazol-3-yl]-1-(2-hydroxy-pyridin-4-yl)-1H-pyridazin-4-one]
IC50: 57 nM

O=c1ccn(-c2ccncc2)nc1-c1ccnn1-c1cccc(Cl)n1 [Example 1, 3-[2-(6-Chloro-pyridin-2-yl)-2H-pyrazol-3-yl]-1-pyridin-4-yl-1H-pyridazin-4-one]
IC50: 8100 nM

CS(=O)(=O)c1cc(-n2ccc(=O)c(-c3ccnn3-c3cccc4ccccc34)n2)ccn1 [Example 16, 1-(2-Methanesulfonyl-pyridin-4-yl)-3-(2-naphthalen-1-yl-2H-pyrazol-3-yl)-1H-pyridazin-4-one]
IC50: 15 nM

O=c1ccn(-c2cncc(F)c2)nc1-c1ccnn1-c1ccnc2ccc(F)cc12 [Example 49, 1-(5-Fluoro-pyridin-3-yl)-3-[2-(6-fluoro-quinolin-4-yl)-2H-pyrazol-3-yl]-1H-pyridazin-4-one]
IC50: 163 nM

O=C(O)c1cccc(-n2nccc2-c2nn(-c3ccncc3)ccc2=O)c1 [Example 5, 3-[5-(4-Oxo-1-pyridin-4-yl-1,4-dihydro-pyridazin-3-yl)-pyrazol-1-yl]-benzoic acid]
IC50: 899 nM

O=c1ccn(-c2cncc(Cl)c2)nc1-c1ccnn1-c1cccc(Cl)c1 [Example 53, 3-[2-(3-Chloro-phenyl)-2H-pyrazol-3-yl]-1-(5-chloro-pyridin-3-yl)-1H-pyridazin-4-one]
IC50: 65 nM

O=c1ccn(-c2ccnc(C(F)(F)F)c2)nc1-c1ccnn1-c1cccc(Cl)c1 [Example 95, 3-[2-(3-Chloro-phenyl)-2H-pyrazol-3-yl]-1-(2-trifluoromethyl-pyridin-4-yl)-1H-pyridazin-4-one]
IC50: 73 nM

O=c1ccn(-c2ccc(Cl)nc2)nc1-c1ccnn1-c1ccccc1F [Example 77, 1-(6-Chloro-pyridin-3-yl)-3-[2-(2-fluoro-phenyl)-2H-pyrazol-3-yl]-1H-pyridazin-4-one]
IC50: 183 nM

O=c1ccn(-c2ccnc(N3CCOCC3)c2)nc1-c1ccnn1-c1cccc(F)c1 [Example 42, 3-[2-(3-Fluoro-phenyl)-2H-pyrazol-3-yl]-1-(2-morpholin-4-yl-pyridin-4-yl)-1H-pyridazin-4-one]
IC50: 1420 nM

Cc1cncc(-n2ccc(=O)c(-c3ccnn3-c3ccnc4cc(Cl)ccc34)n2)c1 [Example 82, 3-[2-(7-Chloro-quinolin-4-yl)-2H-pyrazol-3-yl]-1-(5-methyl-pyridin-3-yl)-1H-pyridazin-4-one]
IC50: 102 nM

CS(=O)(=O)c1cc(-n2ccc(=O)c(-c3ccnn3-c3ccc4c(c3)OCCO4)n2)ccn1 [Example 17, 3-[2-(2,3-Dihydro-benzo[1,4]dioxin-6-yl)-2H-pyrazol-3-yl]-1-(2-methanesulfonyl-pyridin-4-yl)-1H-pyridazin-4-one]
IC50: 96 nM
